In patent publication EP4603105A1, “PHARMACEUTICAL COMPOSITION CONTAINING CYCLIC COMPOUND HAVING SELECTIVE KRAS INHIBITORY EFFECT AGAINST HRAS AND NRAS” (CHUGAI SEIYAKU KABUSHIKI KAISHA, priority 2022, dated 2024):

Legend:
HRAS wild-type protein = HRAS wild-type protein (Homo sapiens, UniProt P01112); assay: Binding to HRAS by surface plasmon resonance (SPR), KD and KD ratio to KRAS; settings: ratio of the KD value with respect to HRAS wild-type protein to the KD value with respect to KRAS
Procedure, shortened: (§1)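 Affinity is measured by surface plasmon resonance at 30°C against captured, GDP-loaded RAS carrying a biotinylated Avi tag. Compounds are titrated by single-cycle kinetics, and KD comes from a 1:1 fit.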

[1] = target: GDP-bound NRAS wild-type protein (Homo sapiens, UniProt P01111); assay: Binding to NRAS by surface plasmon resonance (SPR), KD and KD ratio to KRAS; settings: ratio of the KD value with respect to GDP-bound NRAS wild-type protein to the KD value with respect to KRAS
Procedure, shortened: as §1

[2] = tested on: human lung cancer strain NCI-H441; format: cell-based
Procedure, shortened: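 Readout: […] after the ATP-based reagent. Compound: serial dilutions in dimethyl sulfoxide.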

Sequence of GDP-bound NRAS wild-type protein (P01111 whole entry): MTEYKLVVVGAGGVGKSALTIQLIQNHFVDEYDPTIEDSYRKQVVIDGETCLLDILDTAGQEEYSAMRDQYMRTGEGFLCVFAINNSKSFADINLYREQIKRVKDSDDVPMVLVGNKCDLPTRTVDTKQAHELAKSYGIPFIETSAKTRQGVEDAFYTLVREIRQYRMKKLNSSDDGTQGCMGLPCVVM
Sequence of HRAS wild-type protein (P01112 whole entry): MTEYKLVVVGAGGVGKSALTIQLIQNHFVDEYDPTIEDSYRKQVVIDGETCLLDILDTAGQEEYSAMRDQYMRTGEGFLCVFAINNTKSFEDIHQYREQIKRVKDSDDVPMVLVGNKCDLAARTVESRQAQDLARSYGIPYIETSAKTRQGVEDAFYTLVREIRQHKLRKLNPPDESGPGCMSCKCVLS

Row | Compound | HRAS /KRAS (HRAS wild-type protein) | NRAS /KRAS [1] | IC50 [2]
1 | CCO[C@@H]1C[C@H]2C(=O)NC3(CCC3)C(=O)N(C)[C@@H](C3CCCC3)C(=O)N(C)[C@H](C(=O)N(C)CC)CC(=O)N(C)[C@@H](C(C)C)C(=O)N[C@@H]([C@@H](C)CC)C(=O)N(C)CC(=O)N(C)[C@H]3C/C=C\CCN(C3=O)[C@@H](Cc3ccc(C(F)(F)F)cc3)C(=O)N(C)CC(=O)N[C@@H](CCc3cc(F)c(C(F)(F)F)c(F)c3)C(=O)N2C1 [PP1990] | A (a compound having 10 or more and less than 20 is denoted as A) | A (a compound having 10 or more and less than 20 is denoted as A) | 6.6 nM
2 | CCCN(C)C(=O)[C@@H]1CC(=O)N(C)[C@@H](COCC)C(=O)N[C@@H]([C@@H](C)CC)C(=O)N(C)CC(=O)N(C)[C@H]2C/C=C\CCN(C2=O)[C@@H](Cc2ccc(C(F)(F)F)cc2)C(=O)N(C)CC(=O)N[C@@H](CCc2ccc(C(F)(F)F)c(OC)c2)C(=O)N2C[C@@H](C)C[C@H]2C(=O)NC2(CC(C)(C)C2)C(=O)N(C)[C@@H](C2CCCC2)C(=O)N1C [PP1991] | A (a compound having 10 or more and less than 20 is denoted as A) | A (a compound having 10 or more and less than 20 is denoted as A) | 10.8 nM
3 | CCCN(C)C(=O)[C@@H]1CC(=O)N(C)[C@@H](C(C)C)C(=O)N[C@@H]([C@@H](C)CC)C(=O)N(C)CC(=O)N(C)[C@H]2C/C=C\CCN(C2=O)[C@@H](Cc2ccc(C(F)(F)F)cc2)C(=O)N(C)CC(=O)N[C@@H](CCc2cc(F)c(C(F)(F)F)c(F)c2)C(=O)N2C[C@H](OCC)C[C@H]2C(=O)NC2(CCC2)C(=O)N(C)[C@@H](C2CCCC2)C(=O)N1C [PP1992] | B (a compound having 3 or more and less than 10 is denoted as B) | AA (a compound having 20 or more is denoted as AA) | 17.7 nM
4 | CCOC[C@H]1C(=O)N[C@@H]([C@@H](C)CC)C(=O)N(C)CC(=O)N(C)[C@H]2C/C=C\CCN(C2=O)[C@@H](Cc2ccc(C(F)(F)F)cc2)C(=O)N(C)CC(=O)N[C@@H](CCc2ccc(C(F)(F)F)c(OC)c2)C(=O)N2C[C@@H](C)C[C@H]2C(=O)NC2(CC(C)(C)C2)C(=O)N(C)[C@@H](C2CCCC2)C(=O)N(C)[C@H](C(=O)N(C)CC)CC(=O)N1C [PP1993] | A (a compound having 10 or more and less than 20 is denoted as A) | A (a compound having 10 or more and less than 20 is denoted as A) | 13.3 nM
5 | CCCN(C)C(=O)[C@@H]1CC(=O)N(C)[C@@H](C2CC2)C(=O)N[C@@H]([C@@H](C)CC)C(=O)N(C)CC(=O)N(C)[C@H]2C/C=C\CCN(C2=O)[C@@H](Cc2ccc(C(F)(F)F)cc2)C(=O)N(C)CC(=O)N[C@@H](CCc2cc(F)c(C(F)(F)F)c(F)c2)C(=O)N2C[C@H](OCC)C[C@H]2C(=O)NC2(CCC2)C(=O)N(C)[C@@H](C2CCCC2)C(=O)N1C [PP1994] | A (a compound having 10 or more and less than 20 is denoted as A) | AA (a compound having 20 or more is denoted as AA) | 22.4 nM
6 | CCCOC[C@H]1C(=O)N[C@@H]([C@@H](C)CC)C(=O)N(C)CC(=O)N(C)[C@H]2C/C=C\CCN(C2=O)[C@@H](Cc2ccc(C(F)(F)F)cc2)C(=O)N(C)CC(=O)N[C@@H](CCc2ccc(C(F)(F)F)c(OC)c2)C(=O)N2C[C@@H](C)C[C@H]2C(=O)NC2(CC(C)(C)C2)C(=O)N(C)[C@@H](C2CCCC2)C(=O)N(C)[C@H](C(=O)N(C)CC)CC(=O)N1C [PP1995] | B (a compound having 3 or more and less than 10 is denoted as B) | A (a compound having 10 or more and less than 20 is denoted as A) | 17.8 nM
7 | CCO[C@@H]1C[C@H]2C(=O)NC3(CCC3)C(=O)N(C)[C@@H](C3CCCC3)C(=O)N(C)[C@H](C(=O)N(C)CC)CC(=O)N(C)[C@@H](C3CCC3)C(=O)N[C@@H]([C@@H](C)CC)C(=O)N(C)CC(=O)N(C)[C@H]3C/C=C\CCN(C3=O)[C@@H](Cc3ccc(C(F)(F)F)cc3)C(=O)N(C)CC(=O)N[C@@H](CCc3cc(F)c(C(F)(F)F)c(F)c3)C(=O)N2C1 [PP1996] | B (a compound having 3 or more and less than 10 is denoted as B) | A (a compound having 10 or more and less than 20 is denoted as A) | 15.5 nM
8 | CC[C@H](C)[C@@H]1NC(=O)[C@H](CCOC)N(C)C(=O)C[C@@H](C(=O)N(C)CC)N(C)C(=O)[C@H](C2CCCC2)N(C)C(=O)C2(CC(C)(C)C2)NC(=O)[C@@H]2C[C@H](C)CN2C(=O)[C@H](CCc2ccc(C(F)(F)F)c(OC)c2)NC(=O)CN(C)C(=O)[C@H](Cc2ccc(C(F)(F)F)cc2)N2CC/C=C\C[C@@H](C2=O)N(C)C(=O)CN(C)C1=O [PP1999] | B (a compound having 3 or more and less than 10 is denoted as B) | A (a compound having 10 or more and less than 20 is denoted as A) | 26.6 nM
9 | CCCN(C)C(=O)[C@@H]1CC(=O)N(C)[C@@H](CC(F)F)C(=O)N[C@@H]([C@@H](C)CC)C(=O)N(C)CC(=O)N(C)[C@H]2C/C=C\CCN(C2=O)[C@@H](Cc2ccc(C(F)(F)F)cc2)C(=O)N(C)CC(=O)N[C@@H](CCc2cc(F)c(C(F)(F)F)c(F)c2)C(=O)N2C[C@@H](C)C[C@H]2C(=O)NC2(CCC2)C(=O)N(C)[C@@H](C2CCCC2)C(=O)N1C [PP2000] | B (a compound having 3 or more and less than 10 is denoted as B) | A (a compound having 10 or more and less than 20 is denoted as A) | 17.7 nM
10 | CCCN(C)C(=O)[C@@H]1CC(=O)N(C)[C@@H](CCOC)C(=O)N[C@@H]([C@@H](C)CC)C(=O)N(C)CC(=O)N(C)[C@H]2C/C=C\CCN(C2=O)[C@@H](Cc2ccc(C(F)(F)F)cc2)C(=O)N(C)CC(=O)N[C@@H](CCc2ccc(C(F)(F)F)c(OC)c2)C(=O)N2C[C@@H](C)C[C@H]2C(=O)NC2(CC(C)(C)C2)C(=O)N(C)[C@@H](C2CCCC2)C(=O)N1C [PP2001] | A (a compound having 10 or more and less than 20 is denoted as A) | A (a compound having 10 or more and less than 20 is denoted as A) | 18.1 nM
11 | CC[C@H](C)[C@@H]1NC(=O)[C@H](C(C)C)N(C)C(=O)C[C@@H](C(=O)N(C)CC)N(C)C(=O)[C@H](C2CCCC2)N(C)C(=O)C2(CC(C)(C)C2)NC(=O)[C@@H]2C[C@H](C)CN2C(=O)[C@H](CCc2ccc(C(F)(F)F)c(OC)c2)NC(=O)CN(C)C(=O)[C@H](Cc2ccc(C(F)(F)F)cc2)N2CC/C=C\C[C@@H](C2=O)N(C)C(=O)CN(C)C1=O [PP2003] | B (a compound having 3 or more and less than 10 is denoted as B) | A (a compound having 10 or more and less than 20 is denoted as A) | 11.3 nM
12 | CC[C@H](C)[C@@H]1NC(=O)[C@H](C(C)C)N(C)C(=O)C[C@@H](C(=O)N(C)C)N(C)C(=O)[C@H](C2CCCC2)N(C)C(=O)C2(CC(C)(C)C2)NC(=O)[C@@H]2C[C@H](C)CN2C(=O)[C@H](CCc2ccc(C(F)(F)F)c(OC)c2)NC(=O)CN(C)C(=O)[C@H](Cc2ccc(C(F)(F)F)cc2)N2CC/C=C\C[C@@H](C2=O)N(C)C(=O)CN(C)C1=O [PP2005] | A (a compound having 10 or more and less than 20 is denoted as A) | A (a compound having 10 or more and less than 20 is denoted as A) | 10.7 nM
13 | CC[C@H](C)[C@@H]1NC(=O)[C@H](C2CC2)N(C)C(=O)C[C@@H](C(=O)N(C)CC)N(C)C(=O)[C@H](C2CCCC2)N(C)C(=O)C2(CC(C)(C)C2)NC(=O)[C@@H]2C[C@H](C)CN2C(=O)[C@H](CCc2ccc(C(F)(F)F)c(OC)c2)NC(=O)CN(C)C(=O)[C@H](Cc2ccc(C(F)(F)F)cc2)N2CC/C=C\C[C@@H](C2=O)N(C)C(=O)CN(C)C1=O [PP2007] | B (a compound having 3 or more and less than 10 is denoted as B) | AA (a compound having 20 or more is denoted as AA) | 14.9 nM
14 | CC[C@H](C)[C@@H]1NC(=O)[C@H](C2CCC2)N(C)C(=O)C[C@@H](C(=O)N(C)CC)N(C)C(=O)[C@H](C2CCCC2)N(C)C(=O)C2(CC(C)(C)C2)NC(=O)[C@@H]2C[C@H](C)CN2C(=O)[C@H](CCc2ccc(C(F)(F)F)c(OC)c2)NC(=O)CN(C)C(=O)[C@H](Cc2ccc(C(F)(F)F)cc2)N2CC/C=C\C[C@@H](C2=O)N(C)C(=O)CN(C)C1=O [PP2009] | A (a compound having 10 or more and less than 20 is denoted as A) | A (a compound having 10 or more and less than 20 is denoted as A) | 19.7 nM
15 | CCCN(C)C(=O)[C@@H]1CC(=O)N(C)[C@@H](CC(F)F)C(=O)N[C@@H]([C@@H](C)CC)C(=O)N(C)CC(=O)N(C)[C@H]2C/C=C\CCN(C2=O)[C@@H](Cc2ccc(C(F)(F)F)cc2)C(=O)N(C)CC(=O)N[C@@H](CCc2ccc(C(F)(F)F)c(OC)c2)C(=O)N2C[C@H](OCC)C[C@H]2C(=O)NC2(CC(C)(C)C2)C(=O)N(C)[C@@H](C2CCCC2)C(=O)N1C [PP2010] | B (a compound having 3 or more and less than 10 is denoted as B) | A (a compound having 10 or more and less than 20 is denoted as A) | 6.6 nM
16 | CC[C@H](C)[C@@H]1NC(=O)[C@H](C2CCC2)N(C)C(=O)C[C@@H](C(=O)N(C)C)N(C)C(=O)[C@H](C2CCCC2)N(C)C(=O)C2(CC(C)(C)C2)NC(=O)[C@@H]2C[C@H](C)CN2C(=O)[C@H](CCc2ccc(C(F)(F)F)c(OC)c2)NC(=O)CN(C)C(=O)[C@H](Cc2ccc(C(F)(F)F)cc2)N2CC/C=C\C[C@@H](C2=O)N(C)C(=O)CN(C)C1=O [PP2011] | A (a compound having 10 or more and less than 20 is denoted as A) | A (a compound having 10 or more and less than 20 is denoted as A) | 10.3 nM
